Source: article PMC12177912, “A Geranylated Natural Product Simamycin Disrupts the Allosteric Catalysis of tRNA-2-selenouridine Synthase SelU” (Biochemistry, 2025)

Molecular target: T1, tRNA-2-selenouridine synthase (SelU, MnmH) (Escherichia coli, UniProt Q0TKD8)
T1 construct: M1-A172 (N-terminal rhodanese domain; tags removed with TEV)
Assay: intrinsic tryptophan fluorescence quenching titration (Kd at […] °C; […] at […] °C, […] at […] °C, […] at […] °C); STD NMR
Type: binding

T1 sequence (Q0TKD8 1-172): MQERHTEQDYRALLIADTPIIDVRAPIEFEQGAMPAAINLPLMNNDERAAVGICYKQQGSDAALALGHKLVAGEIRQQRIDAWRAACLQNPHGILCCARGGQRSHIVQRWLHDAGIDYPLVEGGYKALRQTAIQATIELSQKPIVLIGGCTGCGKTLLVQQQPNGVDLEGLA

Compound: CC(C)=CCC/C(C)=C/COC[C@H]1O[C@@H](n2ccc(=O)[nH]c2=O)[C@H](O)[C@@H]1O [simamycin]
- Kd: 29.9 µM
